Measurements reported in EP4692089A1, “NITROGEN-CONTAINING HETEROCYCLIC COMPOUND AS AAK1 INHIBITOR” (Alicorn Pharmaceutical Co., Ltd., priority 2023, dated 2024).
Structures can show the parent of a compound that is named as a salt.

Tests used:
[1] = biological target: T1, AAK1 (30-330) protein (Homo sapiens, UniProt Q2M2I8); experiment: AAK1 kinase assay (ADP generated, detected by HPLC); assay type: biochemical; details: 3.5 nM AAK1, 22 µM ATP, 25°C, 3 h
T1 construct: (His)6x (N); TEV protease cleavage site (N); made in house; host or cells: Escherichia coli BL21(DE3)
T1 sequence (Q2M2I8 30-330): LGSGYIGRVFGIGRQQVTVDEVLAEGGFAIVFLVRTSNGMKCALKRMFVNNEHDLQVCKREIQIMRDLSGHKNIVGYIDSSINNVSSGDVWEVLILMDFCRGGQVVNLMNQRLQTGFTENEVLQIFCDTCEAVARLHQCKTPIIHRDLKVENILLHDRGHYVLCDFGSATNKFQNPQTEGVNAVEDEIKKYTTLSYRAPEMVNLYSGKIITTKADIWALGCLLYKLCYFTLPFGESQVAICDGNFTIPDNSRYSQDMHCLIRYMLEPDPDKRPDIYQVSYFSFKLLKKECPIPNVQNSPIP
Source text: Experimental objective: The objective of this test example is to test the effect of compounds on AAK1 kinase function.
Background principle: AAK1 phosphorylates the threonine residue in the micro-subunit of AP2 (AP2M1). In this process, ATP provides phosphate groups to generate ADP. Therefore, the activity of AAK1 kinase can be evaluated by detecting the amount of ADP generated.
(§1) Expression of AAK1 (30-330) protein: The AAK1 sequence (residues 30-330) was cloned into the pET24N vector with an N-terminal (His)6x tag and a tobacco etch virus (TEV) protease cleavage site. The constructed vector was transformed into Escherichia coli BL21(DE3). When the bacteria were cultured with shaking to reach an OD value of 0.6, 1 mM IPTG was added. […] The bacterial cells were collected and subjected to ultrasonic disruption. The supernatant was obtained by centrifugation, and the protein was purified using Ni-NTA. After dialysis, the concentration and purity of the protein were determined.
The reaction mixture was incubated in a metal bath at 25°C for 3 h. The reaction was terminated by adding 1% SDS, and the amount of ADP generated was detected by HPLC. IC50 values were calculated using GraphPad software.

[2] = biological target: T2, AAK1 (Homo sapiens, UniProt Q2M2I8); experiment: Effect on AP2M1 phosphorylation in 293T cells co-transfected with AAK1 and AP2M1 (Western blot, anti-p-AP2M1); assay type: cell-based; details: p-AP2M1 level, incubated 3 h
T2 construct: HA; expressed in transfected cells; host or cells: 293T cells
T2 sequence (Q2M2I8 whole entry): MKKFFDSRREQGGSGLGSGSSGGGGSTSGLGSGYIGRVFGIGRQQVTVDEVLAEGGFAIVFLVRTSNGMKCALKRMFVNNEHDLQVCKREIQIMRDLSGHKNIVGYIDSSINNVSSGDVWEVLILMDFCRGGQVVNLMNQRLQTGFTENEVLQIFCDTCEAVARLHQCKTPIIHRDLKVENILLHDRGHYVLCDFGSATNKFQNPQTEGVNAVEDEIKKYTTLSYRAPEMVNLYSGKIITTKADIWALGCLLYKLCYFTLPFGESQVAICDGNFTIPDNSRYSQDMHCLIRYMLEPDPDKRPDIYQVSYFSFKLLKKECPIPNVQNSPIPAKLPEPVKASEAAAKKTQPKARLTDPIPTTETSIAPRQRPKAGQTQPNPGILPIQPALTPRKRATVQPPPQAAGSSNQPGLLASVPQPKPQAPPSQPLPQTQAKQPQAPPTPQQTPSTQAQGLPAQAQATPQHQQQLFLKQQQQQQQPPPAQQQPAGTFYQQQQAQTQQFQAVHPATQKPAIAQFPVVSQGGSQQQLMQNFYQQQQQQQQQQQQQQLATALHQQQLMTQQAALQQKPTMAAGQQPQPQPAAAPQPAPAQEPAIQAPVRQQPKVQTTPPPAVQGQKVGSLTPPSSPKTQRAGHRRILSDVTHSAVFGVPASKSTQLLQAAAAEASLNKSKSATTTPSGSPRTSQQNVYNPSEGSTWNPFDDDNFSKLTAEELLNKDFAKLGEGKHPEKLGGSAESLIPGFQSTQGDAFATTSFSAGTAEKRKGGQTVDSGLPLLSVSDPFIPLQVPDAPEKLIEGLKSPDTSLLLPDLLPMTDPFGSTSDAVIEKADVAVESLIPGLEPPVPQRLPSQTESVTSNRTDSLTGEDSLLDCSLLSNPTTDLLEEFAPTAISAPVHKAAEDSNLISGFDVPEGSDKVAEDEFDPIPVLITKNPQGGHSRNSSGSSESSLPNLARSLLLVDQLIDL
Source text: Experimental objective: The objective of this test example is to determine the effect of compounds on AP2M1 phosphorylation in cells.
Background principle: Adaptor-associated kinase 1 (AAK1), also known as AP2-associated kinase 1, is a 104 kDa serine/threonine kinase. AAK1 interacts with the adaptor protein 2 (AP2) complex and phosphorylates the threonine residue in the micro-subunit of AP2 (AP2M1), thereby increasing its binding affinity for certain tyrosine-based or dileucine-based sorting signals of some membrane receptors. The inhibitory effect of compounds on AAK1 was evaluated by detecting the phosphorylation level of AP2M1 in cells, so as to screen candidate compounds.
On the second day, each T25 flask was co-transfected with 16 µg of plasmids (1 µg of AAK1/HA/pIRES and 15 µg of Flag/AP2MI/pcDNA) using a Lip2000 transfection reagent. On the third day, the cells were digested and resuspended, centrifuged at 1000 rpm for 5 minutes, and then seeded into 24-well plates at 450 µl per well (2 × 10^5 cells/well). Gradient dilutions of the compounds to be tested were prepared, 50 µl was added to each well, mixed thoroughly, and incubated at 37°C for 3 h. DMSO was set as a control, and cells without plasmid transfection were set as a blank control. After incubation, the cells were collected and washed twice with PBS. The cells were lysed on ice for 30 minutes using a cell lysis buffer containing the protease inhibitor PMSF. The concentration of protein samples was determined using a BCA kit. Protein electrophoresis: The voltage for the stacking gel was set at 60 V, and that for the separating gel was set at 120 V. After electrophoresis, electrotransfer was initiated. Electrotransfer conditions were set at 250 mA for 2 h. Blocking with 5% BSA was performed for 1 h. A specific primary antibody, anti-p-AP2M1, was added, and incubation was carried out overnight at 4°C on a shaker. Washing with TBST was conducted 4 times, with 2.5 minutes each time. A secondary antibody was incubated on a shaker at room temperature for 1 h. Washing with TBST was conducted 4 times, with 2.5 minutes each time. ECL was used for development to detect the expression level of p-AP2M1. Western blot bands were processed and converted using Image J and GraphPad software to calculate IC50.
IC50 (half maximal inhibitory concentration) refers to the half-inhibitory concentration of the measured antagonist. It can indicate the concentration of a certain drug or substance (inhibitor) that achieves half of the inhibition effect on certain biological processes (or certain substances involved in these processes, such as enzymes, cellular receptors, or microorganisms).

[3] = Pharmacokinetic test in SD rats; details: rat, plasma, po, 3 mg/kg
Protocol: Experimental objective: The objective of this experimental example is to test the pharmacokinetic profile of compounds in SD rats.
Route of administration: The animals were weighed before administration, and the dose was calculated based on their body weight. Administration was performed via intravenous injection and oral gavage.
Blood collection time points: After administration, for IV group: 0.083 h, 0.25 h, 0.5 h, 1 h, 2 h, 4 h, 8 h, and 24 h; for PO group: 0.25 h, 0.5 h, 1 h, 2 h, 4 h, 6 h, 8 h, and 24 h. Blood was collected via the jugular vein, with approximately 0.2 mL collected for each sample. The blood samples were anticoagulated with K2-EDTA and placed on ice after collection.
Plasma sample processing: After collection, the blood samples were placed on ice and centrifuged within 1 hour to separate plasma (centrifugation conditions: 6800g, 6 minutes, 2-8°C). The plasma samples were stored in a -80°C refrigerator before analysis.
Result analysis: Pharmacokinetic parameters were calculated using Phoenix WinNonlin 7.0 based on the plasma concentration data at different time points.

[4] = biological target: T1, AAK1 (30-330) protein; experiment: CETSA test of binding ability to AAK1 protein (Western blot)
Protocol: Experimental objective: To detect the binding ability of compounds to AAK1 protein by means of a CETSA experiment.
Background principle: The CETSA experiment is a molecular detection means for measuring the affinity between drugs and target proteins. […] When a candidate drug is co-incubated with a target protein, if the candidate drug is an inhibitor of AAK1, it can bind to AAK1. […] On the contrary, the stability of the AAK1 protein after heating will be poorer, and the amount of the detected protein will be lower. In this way, the binding ability of the drug to the target protein can be evaluated, which is used for the screening of AAK1 protein inhibitors.
as §1
CETSA sample preparation: Samples were incubated with candidate drugs, control drugs, and control reagents separately for 30 minutes. Each group of samples was heated at approximately 10 pre-set temperature points. After being returned to room temperature, the samples were centrifuged at 20000 g, and the supernatants were collected. Protein samples were denatured by heating at 100°C for 10 minutes with a sample buffer. After the samples were returned to room temperature, Western blot detection was performed on them; the protein loading amount was controlled at 20 µg. […] The same operations were followed, and Western blot detection was conducted. Protein electrophoresis: The voltage for the stacking gel was set at 60 V, and that for the separating gel was set at 120 V. After electrophoresis, electrotransfer was initiated. Electrotransfer conditions were set at 250 mA for 2 h. Blocking with 5% BSA was performed for 1 h. A specific primary antibody was added, and incubation was carried out overnight at 4°C on a shaker. Washing with TBST was conducted 4 times, with 2.5 minutes each time. A secondary antibody was incubated on a shaker at room temperature for 1 h. Washing with TBST was conducted 4 times, with 2.5 minutes each time. ECL was used for development to detect the expression levels of AAK1 protein in different groups and at each temperature point. Western blot bands were processed and converted using Image J and GraphPad software to calculate EC50.

[5] = Blood-brain distribution in DPNP model rats; details: 1 mg/kg
Protocol: Experimental objective: This experiment aims to investigate the analgesic effect of test compounds on streptozotocin (STZ)-induced peripheral neuropathic pain (DPNP) in diabetic rat models and the brain-blood distribution of the compounds associated with the efficacy, via single oral gavage (ig.) administration.
After successful modeling, the baseline plantar pain threshold of the rats was tested using the Von Frey (UP-Down method) as the baseline pain threshold before administration, and the rats were evenly grouped according to their pain thresholds. The groups included a blank control group, a model group, a positive control group (1 mg/kg), a Compound 26 (0.5 mg/kg) group, and a Compound 26 (1 mg/kg) group. The next day, the rats were administered the vehicle or corresponding drugs. At 2 h, 3 h, 4 h, 5 h, and 6 h after administration, the pain threshold of the plantar region on the affected side of rats was determined using Von Frey filaments to calculate the pain threshold improvement rate of the test compounds against neuropathic pain in diabetic rats, and to observe the time-effect relationship. After the experiment, rats from groups G3-G5 (numbers 1-3 per group) were sacrificed, and plasma and brain tissue samples were collected for testing.

[6] = test system: streptozotocin (STZ)-induced peripheral neuropathic pain (DPNP) in diabetic rat models; experiment: Efficacy test in diabetic peripheral neuropathic pain (DPNP), Von Frey pain threshold; assay type: in vivo, SD rats
Protocol: Experimental methods: After the adaptation period, the rats were tested for baseline plantar pain threshold using the Von Frey (Up-Down method) before modeling. Subsequently, except for the blank control group, all other rats were fasted for 16 hours with free access to water and then intraperitoneally injected with streptozotocin for modeling (65 mg/kg; 2 mL/kg). One week after modeling, blood was collected from the tail tip to detect blood glucose levels after a 4-hour fast. Rats with blood glucose levels higher than 16.7 mmol/L were considered diabetic.

[7] = DPNP model rats, 6 h after intragastric administration

## CC(C)C[C@](C)(N)COc1ccc(-c2ccnc(C(F)F)c2)nc1C(F)F [BMS-986176, reference compound]
[1]
  IC50: 260 nM
[2]
  IC50: 100 to 1000 nM
[3]
  AUC(0-inf): 1160 ng·h/mL
  AUC(0-t): 1070 ng·h/mL
  Cmax: 85.6 ng/mL
  MRT inf: 9.5 h
  MRT last: 7.52 h
  Tmax: 3.33 h
  half-life: 6.32 h
[4]
  EC50: 100 to 1000 nM
[5]; [7]
  Brain tissue concentration: 26.94 ng/mL
  Brain tissue concentration*: 296.36 ng/g
  Plasma concentration: 34.38 ng/mL
[5]; rat, brain, po
  Kp at 6 h: 8.62
[6]; 1 mg/kg group, after modeling, before administration, x±s, n=5
  MWT (g) After modeling: 7.00 ± 1.83 g
[6]; 1 mg/kg single ig., 2 h
  Pain threshold improvement rate 2h: 64.51
[6]; 1 mg/kg single ig., 2 h after administration, x±s, n=5
  MWT (g) 2h: 10.38 ± 2.59 g
[6]; 1 mg/kg single ig., 3 h
  Pain threshold improvement rate 3 h: 42.24
[6]; 1 mg/kg single ig., 3 h after administration, x±s, n=5
  MWT (g) 3 h: 7.51 ± 4.29 g
[6]; 1 mg/kg single ig., 4 h
  Pain threshold improvement rate 4h: 20.35
[6]; 1 mg/kg single ig., 4 h after administration, x±s, n=5
  MWT (g) 4 h: 5.06 ± 2.76 g
[6]; 1 mg/kg single ig., 5 h
  Pain threshold improvement rate 5 h: 16.32
[6]; 1 mg/kg single ig., 5 h after administration, x±s, n=5
  MWT (g) 5 h: 4.82 ± 1.07 g
[6]; 1 mg/kg single ig., 6 h
  Pain threshold improvement rate 6h: 20.85
[6]; 1 mg/kg single ig., 6 h after administration, x±s, n=5
  MWT (g) 6h: 4.63 ± 0.64 g
[6]; 1 mg/kg, time after administration
  duration of analgesia: ≤ 4 h

## COc1ccnc2[nH]cc(-c3ccc(OC[C@](C)(N)CC(C)C)c(C(F)F)n3)c12 [Compound 17, (R)-1-{[2-(difluoromethyl)-6-(4-methoxy-1H-pyrrolo[2,3-b]pyridin-3-yl)pyridin-3-yl]oxy}-2,4-dimethylpentan-2-amine]
[1]
  IC50: 56.9 nM
[2]
  IC50: 100 to 1000 nM
[4]
  EC50: 10 to 100 nM

## CC(C)C[C@](C)(N)COc1ccc(-c2c[nH]c3ncc(C(F)F)cc23)nc1C(F)F [Compound 28, (S)-1-{[2-(difluoromethyl)-6-[5-(difluoromethyl)-1H-pyrrolo[2,3-b]pyridin-3-yl]pyridin-3-yl]oxy}-2,4-dimethylpentan-2-amine formate]
[1]
  IC50: 65.3 nM
[2]
  IC50: 10 to 100 nM
[4]
  EC50: 10 to 100 nM
